Test results as given in US20030144190A1, “Method of modulating and antiapoptotic and antiapoptotic pathways in cells” (priority 2003, published 2003).

System: CREF/RasV12
Assay: Apoptosis by flow cytometry (cells with hypodiploid DNA content) in Ras-transformed fibroblasts
Format: cell-based, rat

Row | Structure (SMILES) | lovastatin-induced apoptosis in the presence of translational inhibitors | apoptosis observed in the presence of lovastatin alone (5 μM lovastatin, 24 h) [%]
1 | C[C@@H]1C[C@@H]([C@H](O)CC2CC(=O)NC(=O)C2)C(=O)[C@@H](C)C1 [cycloheximide] | blocked apoptosis | –
2 | CC[C@H](C)C(=O)O[C@H]1C[C@@H](C)C=C2C=C[C@H](C)[C@H](CC[C@@H]3C[C@@H](O)CC(=O)O3)[C@H]21 [lovastatin] | – | 2 to 8
